Results from patent publication US6737383B1, “Herbicidal oxadiazolidines” (priority 1999, dated 2004).

Legend:
[1] = tested on: bamyardgrass; assay: Test B flood test barnyardgrass; format: in vivo, Echinochloa crus-galli
Outline: (§1)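 Each value is a visual injury score relative to controls, with 10 meaning complete control and 0 no effect. Evaluation took place twelve to sixteen days after the 2-leaf-stage plants were treated and kept in the greenhouse.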

[2] = tested on: rape; assay: Test B pre/postemergence rape; format: in vivo, Brassica napus; conditions: for Rape plant response rating (0 to 10 scale): 0 is no effect
Outline: (§2)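 Herbicidal effect was estimated by eye on a ten-point control scale after plants spent twelve to sixteen days in a greenhouse following soil or foliar treatment. Foliar sprays targeted plants at one to four leaves; all doses were formulated in a non-phytotoxic solvent with surfactant.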

[3] = tested on: smallflower flatsedge; assay: Test B flood test smallflower flatsedge; format: in vivo, Cyperus difformis
Outline: as §1

[4] = tested on: morningglory; assay: Test B pre/postemergence morningglory; format: in vivo, Ipomoea hederacea; conditions: for Morningglory plant response rating (0 to 10 scale): 0 is no effect
Outline: as §2

[5] = Rate 62 g/ha, flood test species, Pre-emergence, visual evaluation after twelve to sixteen days
[6] = Rate 125 g/ha, under heading Pre-emergence, flood test species, visual evaluation after twelve to sixteen days
[7] = Rate 250 g/ha, Pre-emergence (flood test species), scale 0 to 10, 0 is no effect, 10 is complete control
[8] = Rate 500 g/ha, Pre-emergence section of Table B, 0 to 10 scale (0 no effect, 10 complete control)
[9] = Postemergence, Rate 62 g/ha, scale 0 to 10, 0 is no effect, 10 is complete control
[10] = Postemergence, Rate 125 g/ha, scale of 0 to 10 where 0 is no effect and 10 is complete control
[11] = Postemergence, Rate 250 g/ha, scale of 0 to 10, 0 is no effect, 10 is complete control
[12] = Postemergence, Rate 500 g/ha, scale of 0 to 10 where 0 is no effect and 10 is complete control
[13] = Preemergence, Rate 62 g/ha, scale 0 to 10 (0 no effect, 10 complete control)
[14] = Preemergence, Rate 125 g/ha, scale of 0 to 10 where 0 is no effect and 10 is complete control
[15] = Preemergence, Rate 250 g/ha, scale 0 to 10 (0 no effect, 10 complete control)
[16] = Preemergence, Rate 500 g/ha, scale of 0 to 10 where 0 is no effect and 10 is complete control
[17] = Rate 62 g/ha, headed Pre-emergence (flood test species), scale 0 to 10 (0 no effect, 10 complete control)
[18] = Rate 125 g/ha, Pre-emergence, flood test species, scale 0 to 10 where 0 is no effect and 10 is complete control
[19] = Rate 250 g/ha, Pre-emergence, flood-test species, scale 0 to 10, 0 is no effect, 10 is complete control
[20] = Rate 500 g/ha, headed Pre-emergence (flood test species), scale 0 to 10 (0 no effect, 10 complete control)
[21] = Preemergence, Rate 62 g/ha, scale of 0 to 10 where 0 is no effect and 10 is complete control
[22] = Preemergence, Rate 125 g/ha, 10 is complete control
[23] = Preemergence, Rate 250 g/ha, scale 0 to 10, 0 is no effect, 10 is complete control
[24] = Rate 62 g/ha, Postemergence, scale of 0 to 10 where 0 is no effect and 10 is complete control
[25] = Rate 125 g/ha, Postemergence, scale 0 to 10
[26] = Rate 500 g/ha, Postemergence, scale 0 to 10
[27] = Rate 500 g/ha, Pre-emergence, flood test species, scale 0 to 10 (0 no effect, 10 complete control)
[28] = Postemergence, Rate 1000 g/ha, scale 0 to 10 (0 no effect, 10 complete control)
[29] = Preemergence, Rate 500 g/ha, scale 0 to 10 (0 no effect, 10 complete control)
[30] = Rate 1000 g/ha, Preemergence, scale 0 to 10 (0 no effect, 10 complete control)
[31] = Rate 2000 g/ha, Postemergence, scale 0 to 10
[32] = Rate 2000 g/ha, Preemergence, scale 0 to 10

CCOC(=O)CC(C(=O)OCC)n1c(=O)on(C(=O)N(c2ccc(F)cc2)C(C)C)c1=O (stereo not drawn) [Compound 615]
Plant response rating, Barnyardgrass (0 to 10 scale, 0 is no effect, 10 is complete control) [1, 5]: 0
Barnyardgrass plant response rating (0 to 10 scale, 0 is no effect, 10 is complete control) [1, 6]: 0
Barnyardgrass plant response rating [1, 7]: 0
Barnyardgrass plant response rating [1, 8]: 0
Plant response rating, Rape [2, 9]: 0
Plant response rating, Rape [2, 10]: 0
Rape plant response rating [2, 11]: 0
Plant response rating, Rape [2, 12]: 0
Rape plant response rating [2, 13]: 0
Rape plant response rating [2, 14]: 0
Plant response rating, Rape [2, 15]: 0
Plant response rating, Rape [2, 16]: 0
Plant response rating, S. Flatsedge (0 to 10 scale, 0 is no effect, 10 is complete control) [3, 5]: 0
S. Flatsedge plant response rating (0 to 10 scale, 0 is no effect, 10 is complete control) [3, 6]: 0
S. Flatsedge plant response rating [3, 7]: 0
S. Flatsedge plant response rating [3, 8]: 0
Plant response rating, Morningglory [4, 9]: 0
Plant response rating, Morningglory [4, 10]: 1
Morningglory plant response rating [4, 11]: 1
Plant response rating, Morningglory [4, 12]: 1
Morningglory plant response rating [4, 13]: 0
Morningglory plant response rating [4, 14]: 0
Plant response rating, Morningglory [4, 15]: 0
Plant response rating, Morningglory [4, 16]: 0

Cc1nc(C)c(-n2c(=O)on(C(=O)N(c3ccccc3)C(C)C)c2=O)s1 [Compound 197]
Barnyardgrass plant response rating [1, 17]: 0
Barnyardgrass plant response rating [1, 18]: 0
Barnyardgrass plant response rating [1, 19]: 0
Plant response rating, Barnyardgrass [1, 20]: 0
Rape plant response rating [2, 21]: 0
Rape plant response rating (0 to 10 scale) [2, 22]: 0
Rape plant response rating [2, 23]: 0
Plant response rating, Rape [2, 16]: 0
Rape plant response rating [2, 24]: 0
Rape plant response rating [2, 25]: 0
Plant response rating (0 to 10; 0 is no effect, 10 is complete control), Rape ([2]; Rate 250 g/ha, Postemergence): 0
Rape plant response rating [2, 26]: 0
S. Flatsedge plant response rating [3, 17]: 0
S. Flatsedge plant response rating [3, 18]: 0
S. Flatsedge plant response rating [3, 19]: 0
S. Flatsedge plant response rating [3, 27]: 0
Morningglory plant response rating [4, 21]: 0
Morningglory plant response rating (0 to 10 scale) [4, 22]: 0
Morningglory plant response rating [4, 23]: 0
Plant response rating, Morningglory [4, 16]: 0
Morningglory plant response rating [4, 24]: 3
Morningglory plant response rating [4, 25]: 5
Plant response rating (0 to 10; 0 is no effect, 10 is complete control), Morningglory ([4]; Rate 250 g/ha, Postemergence): 5
Morningglory plant response rating [4, 26]: 0

CCN(C(=O)n1oc(=O)n(N(C)c2ccccc2)c1=O)C1CCCCC1 [Compound 183]
Barnyardgrass plant response rating [1, 17]: 0
Barnyardgrass plant response rating [1, 18]: 0
Barnyardgrass plant response rating [1, 19]: 0
Plant response rating, Barnyardgrass [1, 20]: 0
Barnyardgrass plant response rating ([1]; Rate 1000 g/ha, Pre-emergence (as headed), scale 0 to 10): 0
Barnyardgrass plant response rating ([1]; Rate 2000 g/ha, Pre-emergence (as headed), scale 0 to 10, 0 no effect, 10 complete control): 0
Rape plant response rating [2, 28]: 0
Rape plant response rating [2, 21]: 0
Rape plant response rating (0 to 10 scale) [2, 22]: 0
Rape plant response rating [2, 23]: 0
Rape plant response rating [2, 29]: 0
Rape plant response rating [2, 24]: 0
Rape plant response rating [2, 25]: 0
Plant response rating (0 to 10; 0 is no effect, 10 is complete control), Rape ([2]; Rate 250 g/ha, Postemergence): 0
Rape plant response rating [2, 26]: 0
Plant response rating, Rape [2, 30]: 0
Rape plant response rating [2, 31]: 0
Rape plant response rating [2, 32]: 0
S. Flatsedge plant response rating ([3]; Pre-emergence, Rate 1000 g/ha, scale 0 to 10 (0 no effect, 10 complete control)): 0
S. Flatsedge plant response rating [3, 17]: 0
S. Flatsedge plant response rating [3, 18]: 0
S. Flatsedge plant response rating [3, 19]: 0
S. Flatsedge plant response rating [3, 27]: 0
S. Flatsedge plant response rating ([3]; Rate 2000 g/ha, Pre-emergence (as headed), scale 0 to 10): 0
Morningglory plant response rating [4, 28]: 4
Morningglory plant response rating [4, 21]: 0
Morningglory plant response rating (0 to 10 scale) [4, 22]: 0
Morningglory plant response rating [4, 23]: 0
Morningglory plant response rating [4, 29]: 0
Morningglory plant response rating [4, 24]: 0
Morningglory plant response rating [4, 25]: 0
Plant response rating (0 to 10; 0 is no effect, 10 is complete control), Morningglory ([4]; Rate 250 g/ha, Postemergence): 1
Morningglory plant response rating [4, 26]: 2
Plant response rating, Morningglory [4, 30]: 0
Morningglory plant response rating [4, 31]: 5
Morningglory plant response rating [4, 32]: 0
